Experimental data reported in patent publication US20240199693A1, “HE[…] FOR USE IN THE TREATMENT OF HMGB1-DEPENDENT DISEASES” (priority 2021, published 2024).
Square brackets hold non-standard residues; d marks the D form. Ends that are not written are not given here.

How the values were obtained:
Assay type in all cases: in vivo
HMGB1 [1] = test: Mouse model of acute lung injury induced by intratracheal LPS; HMGB1 in bronchoalveolar fluid by ELISA; conditions: C57Bl/6 male mice, BALF after 48 hours, mean±SEM (n=6)
Procedure: This example illustrates efficacy of compounds of the invention in the inhibition of HMGB1 secretion.
Compounds of the invention were tested in a mouse model of acute lung injury induced by intratracheal administration of lipopolysaccharide (LPS) as described, for instance, in D'Alessio F R. Mouse Models of Acute Lung Injury and ARDS. Methods Mol Biol. 2018, 1809:341-350. C57BI/6 male mice were randomized into eight groups of 6 animals each. Mice were treated intratracheally with 1 μg/mouse of α-Galactosyl Ceramide (α-GalCer, KRN7000, Sigma-Aldrich) and after 24 hours with LPS (E. coli; 1 mg/mouse) and 10 μL/mouse Freund's complete adjuvant. Then, mice received by inhalation 50 μL saline (control); 10, 100, or 250 μg/kg of H-Tyr-D-Ala-Gly-Phe-Leu-Arg-Arg-NH2; 100 μg/kg of H-Tyr-D-Ala-Gly-Phe-Leu-Arg-Arg-NHC2H5; 100 μg/kg of H-Tyr-D-Ala-Gly-Phe-Leu-Arg-Arg-NHC4H9; 100 μg/kg of H-Tyr-D-Ala-Gly-Phe-Leu-Arg-Arg-N(CH3)2; 10 μg/kg H-Tyr-D-Ala-Gly-Phe-Leu-Arg-Arg-OH (Chavkin C et al. 1981); or 250 μg/kg of [D-Ala^2, D-Leu^5]-enkephalin as solutions in 50 μL. saline. After 48 hours, HMGB1 concentrations were measured in bronchoalveolar fluid (BALF) with commercially available ELISA kit for HMGB1 (SEA3999Mu, Cloud-Clone corp.). Results are presented in Tables 1 as mean±SEM (n=6) of HMGB1 levels in BALF, in % of control.

HMGB1 [2] = test: Mouse model of antigen-induced arthritis (mBSA); knee swelling and HMGB1 in synovial lavage fluid by ELISA; conditions: C3H/He male mice, 0.14 mg/kg s.c. once-a-day for 5 days, 25th day, mean±SEM (n=6)
Procedure: (§1) This example illustrates that compound (I) is useful for treating arthritis, the HMGB1-dependent disease.
An efficacy of H-Tyr-D-Ala-Gly-Phe-Leu-Arg-Arg-NH2 acetate was tested in a mouse model of antigen-induced arthritis induced by methylated bovine serum albumin (mBSA), as described in Brackertz et al., Arthritis Rheum. 1977, 20(3):841-50; Staite et al., Agents and Actions 1989, 27(3/4):338-40. Briefly, male C3H/He mice 8-10 weeks of age were randomized into two groups of 6 animals each. Immunization: the mice were immunized 2 times (on the 0th and 7th days) with s.c. injections of mBSA (50 mg/kg, Sigma-Aldrich) emulsified in 20 μL Freund's complete adjuvant and on the 21st day received intra-articular injection of mBSA (50 mg/kg) in 20 μL saline in the right hind knee as a booster immunization. […] Treatment: the mice received s.c. injections either 0.1 ml saline (control, n=6) or 0.14 mg/kg H-Tyr-D-Ala-Gly-Phe-Leu-Arg-Arg-NH2 acetate in 0.1 ml saline (n=6), once-a-day for 5 consecutive days, beginning 30 min after the booster immunization. The disease course was quantified by assessment of the swelling of the arthritic knee joint on 25th day. HMGB1 levels (pg/ml) in the synovial lavage fluids of the arthritic joint on 25th day was measured using ELISA (SEA3999Mu, Cloud-Clone corp.). […]

HMGB1 [3] = test: Mouse model of rheumatoid arthritis (type II collagen-induced); serum HMGB1 by ELISA and arthritis incidence; conditions: BALB/c male mice
Procedure: as §1
An efficacy of the compound of the invention was tested in a mouse model of rheumatoid arthritis, as described in Brand et al., Nat Protoc. 2007, 2(5):1269-75. Male BALB/c mice were randomized into two groups of 5 animals each. Arthritis was induced in using an intradermal injection of cold emulsion (0.05 ml) prepared by emulsifying chicken type II collagen (CII) solution in acetic acid with complete Freund's adjuvant (CFA) into the base of the tail. Three weeks later, the mice were administered by a second injection in the same manner. Following the booster immunization, mice received 50 μL saline i.p. (control) or 100 μg/kg H-Tyr-D-Ala-Gly-Phe-Leu-Arg-Arg-NH2 in 50 μL saline i.p., once-a-day, for two weeks. The serum level of HMGB1 was determined on day 35 with commercially available ELISA kit for HMGB1 (SEA3999Mu, Cloud-Clone corp.). The clinical severity of arthritis in each paw was quantified according to a graded scale from 0 to 4, as described in Brand et al., Nat Protoc. 2007, 2(5):1269-75. Results are presented in Table 2 as and mean±SEM (n=5) of HMGB1 levels in serum in % of control and arthritis incidence.

For “H-Tyr-D-Ala-Gly-Phe-Leu-Arg-Arg-N(CH3)2 acetate (H-Y[dA]GFLRR-NMe2; also: acetate salt) [heptapeptide dimethylamide of formula (I)]”, the “HMGB1 in BALF, % of control” value (HMGB1 [1]; 100 μg/kg by inhalation) was 42.3 ± 5.9 %.

“H-Tyr-D-Ala-Gly-Phe-Leu-Arg-Arg-NHC4H9 acetate (H-Y[dA]GFLRR-NHC4H9; also: acetate salt) [heptapeptide butylamide of formula (I)]” was tested, and the “HMGB1 in BALF, % of control” value (HMGB1 [1]; 100 μg/kg by inhalation) was 40.1 ± 5.0 %.

For “L-tyrosyl-D-alanyl-L-glycyl-L-phenylala nyl-L-leucyl-L-arginyl-L-arginine amide acetate (Y[dA]GFLRR-NH2; also: acetate salt) [heptapeptide amide of formula (I), Z = NH2]”, the “HMGB1 in BALF, % of control” value (HMGB1 [1]; 100 μg/kg by inhalation) was 31.8 ± 12.4 %, the “HMGB1 in BALF, % of control” value (HMGB1 [1]; 250 μg/kg by inhalation) was 34.2 ± 8.0 % and the “HMGB1 in synovial lavage fluid of the arthritic joint” value (HMGB1 [2]) was 119 ± 38 pg/mL. For the same substance, the Knee joint circumference (HMGB1 [2]) was 1.32 ± 0.04 cm, the Arthritis incidence (HMGB1 [3]; 100 μg/kg i.p. once-a-day for two weeks (n=5)) was 20% and the “HMGB1 in serum, % of control” value (HMGB1 [3]; 100 μg/kg i.p. once-a-day for two weeks, day 35, mean±SEM (n=5)) was 21.5 ± 5.9 %.

“H-Tyr-D-Ala-Gly-Phe-Leu-Arg-Arg-OH (H-Y[dA]GFLRR-OH; also: acetate salt) [modified [D-Ala^2]-dynorphin (1-7) described by Chavkin C et al. 1981; structurally similar comparison peptide, reference compound]” was tested, and the “HMGB1 in BALF, % of control” value (HMGB1 [1]; 10 μg/kg by inhalation) was 88.67 ± 10.5%.

For “H-Tyr-D-Ala-Gly-Phe-Leu-Arg-Arg-NHC2H5 acetate (H-Y[dA]GFLRR-NHEt; also: acetate salt) [heptapeptide ethylamide of formula (I)]”, the “HMGB1 in BALF, % of control” value (HMGB1 [1]; 100 μg/kg by inhalation) was 35.2 ± 7.2 %.
